Source: ChEMBL document CHEMBL4507256 (2021)

What was measured:
[1] = tested on: Receptor-type tyrosine-protein kinase FLT3 (Homo sapiens), P36888 [UNDEFINED MUTATION]; details: Compound concentration 1000.0 nM
[2] = molecular target: Casein kinase I isoform alpha-like (Homo sapiens) (UniProt Q8N752); details: Compound concentration 1000.0 nM
[3] = molecular target: Tyrosine-protein kinase Tec (Homo sapiens) (UniProt P42680); details: Compound concentration 1000.0 nM
[4] = molecular target: cGMP-dependent protein kinase 2 (Homo sapiens) (UniProt Q13237); details: Compound concentration 1000.0 nM
[5] = molecular target: Megakaryocyte-associated tyrosine-protein kinase (Homo sapiens) (UniProt P42679); details: Compound concentration 1000.0 nM
Megakaryocyte-associated tyrosine-protein kinase (Homo sapiens), sequence (P42679 whole entry): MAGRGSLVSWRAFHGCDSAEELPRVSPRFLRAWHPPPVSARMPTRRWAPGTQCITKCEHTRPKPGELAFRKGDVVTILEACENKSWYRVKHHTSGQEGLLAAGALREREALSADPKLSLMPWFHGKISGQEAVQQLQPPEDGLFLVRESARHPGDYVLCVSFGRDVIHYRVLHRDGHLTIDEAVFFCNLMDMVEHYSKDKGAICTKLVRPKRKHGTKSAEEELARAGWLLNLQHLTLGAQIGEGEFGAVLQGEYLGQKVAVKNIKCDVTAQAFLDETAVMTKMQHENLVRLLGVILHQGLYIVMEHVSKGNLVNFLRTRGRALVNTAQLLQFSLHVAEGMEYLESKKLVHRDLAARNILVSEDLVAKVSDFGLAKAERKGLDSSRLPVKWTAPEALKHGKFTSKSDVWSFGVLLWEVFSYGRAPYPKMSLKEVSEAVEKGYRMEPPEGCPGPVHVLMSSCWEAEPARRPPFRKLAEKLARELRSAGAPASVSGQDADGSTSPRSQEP

[6] = molecular target: Serine/threonine-protein kinase D1 (Homo sapiens) (UniProt Q15139); details: Compound concentration 1000.0 nM
[7] = molecular target: Serine/threonine-protein kinase STK11 (Homo sapiens) (UniProt Q15831); details: Compound concentration 1000.0 nM
[8] = molecular target: Proto-oncogene tyrosine-protein kinase receptor Ret (Homo sapiens) (UniProt P07949); details: Compound concentration 1000.0 nM
[9] = molecular target: Macrophage colony-stimulating factor 1 receptor (Homo sapiens) (UniProt P07333); details: Compound concentration 1000.0 nM
[10] = molecular target: Serine/threonine-protein kinase pim-2 (Homo sapiens) (UniProt Q9P1W9); details: Compound concentration 1000.0 nM
[11] = tested on: Tyrosine-protein kinase ABL1 (Homo sapiens), P00519 [T315I]; details: Compound concentration 1000.0 nM
[12] = molecular target: Mitotic checkpoint serine/threonine-protein kinase BUB1 (Homo sapiens) (UniProt O43683); details: Compound concentration 1000.0 nM
[13] = tested on: ALK tyrosine kinase receptor (Homo sapiens), Q9UM73 [C1156Y]; details: Compound concentration 1000.0 nM
ALK tyrosine kinase receptor (Homo sapiens), Q9UM73 [C1156Y], sequence (Q9UM73 whole entry C1156Y, looked up): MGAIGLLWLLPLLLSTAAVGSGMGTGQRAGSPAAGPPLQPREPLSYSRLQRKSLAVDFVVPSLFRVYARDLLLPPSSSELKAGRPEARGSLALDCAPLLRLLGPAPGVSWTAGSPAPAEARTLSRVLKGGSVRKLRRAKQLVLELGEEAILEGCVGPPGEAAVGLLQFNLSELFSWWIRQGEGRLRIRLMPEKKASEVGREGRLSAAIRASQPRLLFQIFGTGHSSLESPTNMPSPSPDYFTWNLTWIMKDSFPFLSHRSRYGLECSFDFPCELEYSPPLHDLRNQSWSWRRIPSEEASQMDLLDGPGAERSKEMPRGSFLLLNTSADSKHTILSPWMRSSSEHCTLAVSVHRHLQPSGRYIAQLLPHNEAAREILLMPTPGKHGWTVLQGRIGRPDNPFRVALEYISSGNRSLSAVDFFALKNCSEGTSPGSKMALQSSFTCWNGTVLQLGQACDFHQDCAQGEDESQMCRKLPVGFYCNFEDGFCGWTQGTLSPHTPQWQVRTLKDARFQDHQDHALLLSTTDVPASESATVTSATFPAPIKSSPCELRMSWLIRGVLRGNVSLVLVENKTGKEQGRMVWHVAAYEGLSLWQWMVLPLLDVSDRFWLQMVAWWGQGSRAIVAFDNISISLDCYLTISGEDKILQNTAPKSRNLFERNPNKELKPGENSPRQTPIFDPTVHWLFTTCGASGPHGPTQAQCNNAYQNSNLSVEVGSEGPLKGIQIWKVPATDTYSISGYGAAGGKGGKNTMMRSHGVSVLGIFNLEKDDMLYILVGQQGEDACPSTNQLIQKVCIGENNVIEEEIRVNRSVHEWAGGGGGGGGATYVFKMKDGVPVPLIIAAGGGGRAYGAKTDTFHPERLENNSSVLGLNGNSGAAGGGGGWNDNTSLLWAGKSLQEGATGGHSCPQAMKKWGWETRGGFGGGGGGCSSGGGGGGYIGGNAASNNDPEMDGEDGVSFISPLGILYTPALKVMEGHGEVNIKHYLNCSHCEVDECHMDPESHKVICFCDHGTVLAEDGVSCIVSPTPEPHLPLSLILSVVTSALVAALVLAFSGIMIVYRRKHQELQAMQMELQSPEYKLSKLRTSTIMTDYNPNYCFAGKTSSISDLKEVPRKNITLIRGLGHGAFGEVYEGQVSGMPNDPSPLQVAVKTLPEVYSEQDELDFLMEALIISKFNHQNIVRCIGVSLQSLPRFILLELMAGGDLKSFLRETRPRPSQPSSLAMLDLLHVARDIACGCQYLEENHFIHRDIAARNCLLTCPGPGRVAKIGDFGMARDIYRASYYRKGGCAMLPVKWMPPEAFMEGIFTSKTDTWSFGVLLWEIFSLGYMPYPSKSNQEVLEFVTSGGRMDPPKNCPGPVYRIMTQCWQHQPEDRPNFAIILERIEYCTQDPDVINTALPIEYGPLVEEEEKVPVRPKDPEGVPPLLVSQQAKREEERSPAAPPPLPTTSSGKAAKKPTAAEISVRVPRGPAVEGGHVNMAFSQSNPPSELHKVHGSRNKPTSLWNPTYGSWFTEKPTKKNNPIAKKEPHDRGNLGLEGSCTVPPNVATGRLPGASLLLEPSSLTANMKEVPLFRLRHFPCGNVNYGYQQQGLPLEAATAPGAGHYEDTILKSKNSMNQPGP

[14] = molecular target: Wee1-like protein kinase (Homo sapiens) (UniProt P30291); details: Compound concentration 1000.0 nM
[15] = molecular target: Protein kinase C epsilon type (Homo sapiens) (UniProt Q02156); details: Compound concentration 1000.0 nM
[16] = molecular target: Ribosomal protein S6 kinase alpha-4 (Homo sapiens) (UniProt O75676); details: Compound concentration 1000.0 nM
[17] = molecular target: Myosin light chain kinase 2, skeletal/cardiac muscle (Homo sapiens) (UniProt Q9H1R3); details: Compound concentration 1000.0 nM
Myosin light chain kinase 2, skeletal/cardiac muscle (Homo sapiens), sequence (Q9H1R3 whole entry): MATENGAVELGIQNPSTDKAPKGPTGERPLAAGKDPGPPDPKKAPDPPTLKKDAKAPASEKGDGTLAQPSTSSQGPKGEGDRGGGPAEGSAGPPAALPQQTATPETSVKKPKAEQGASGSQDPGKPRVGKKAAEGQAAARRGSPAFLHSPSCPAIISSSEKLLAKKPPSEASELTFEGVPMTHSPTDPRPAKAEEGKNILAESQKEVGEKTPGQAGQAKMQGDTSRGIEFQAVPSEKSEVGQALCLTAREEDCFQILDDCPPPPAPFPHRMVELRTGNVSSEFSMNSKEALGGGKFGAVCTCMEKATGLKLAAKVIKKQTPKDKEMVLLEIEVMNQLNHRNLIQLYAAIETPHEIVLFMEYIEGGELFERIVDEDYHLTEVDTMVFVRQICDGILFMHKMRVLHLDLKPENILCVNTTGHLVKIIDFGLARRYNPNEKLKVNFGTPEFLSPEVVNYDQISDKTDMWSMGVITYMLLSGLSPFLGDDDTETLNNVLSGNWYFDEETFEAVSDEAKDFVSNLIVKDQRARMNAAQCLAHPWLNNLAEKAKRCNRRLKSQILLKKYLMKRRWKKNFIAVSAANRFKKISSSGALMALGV

[18] = molecular target: Fibroblast growth factor receptor 3 (Homo sapiens) (UniProt P22607); details: Compound concentration 1000.0 nM
[19] = molecular target: Mitogen-activated protein kinase kinase kinase 4 (Homo sapiens) (UniProt Q9Y6R4); details: Compound concentration 1000.0 nM
[20] = molecular target: Casein kinase I isoform gamma-1 (Homo sapiens) (UniProt Q9HCP0); details: Compound concentration 1000.0 nM
[21] = molecular target: Death-associated protein kinase 3 (Homo sapiens) (UniProt O43293); details: Compound concentration 1000.0 nM
[22] = molecular target: Alpha-2A adrenergic receptor (Homo sapiens) (UniProt P08913); details: Compound concentration 10.0 uM
[23] = molecular target: TRAF2 and NCK-interacting protein kinase (Homo sapiens) (UniProt Q9UKE5); details: Compound concentration 1000.0 nM
[24] = molecular target: T1, Muscarinic acetylcholine receptor M1 (Homo sapiens) (UniProt P11229); details: Compound concentration 10.0 uM
T1 sequence (whole entry): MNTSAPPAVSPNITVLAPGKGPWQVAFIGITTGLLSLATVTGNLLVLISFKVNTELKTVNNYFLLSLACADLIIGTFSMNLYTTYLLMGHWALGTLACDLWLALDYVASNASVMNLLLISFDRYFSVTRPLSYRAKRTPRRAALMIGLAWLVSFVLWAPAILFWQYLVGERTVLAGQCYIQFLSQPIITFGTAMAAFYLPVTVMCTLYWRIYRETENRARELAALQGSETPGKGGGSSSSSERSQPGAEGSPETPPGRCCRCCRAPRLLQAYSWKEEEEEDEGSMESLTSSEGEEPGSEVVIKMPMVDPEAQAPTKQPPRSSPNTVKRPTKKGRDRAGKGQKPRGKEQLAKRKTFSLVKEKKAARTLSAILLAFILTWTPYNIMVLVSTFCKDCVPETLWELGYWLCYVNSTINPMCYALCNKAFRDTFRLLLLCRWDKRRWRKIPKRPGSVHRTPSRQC

[25] = molecular target: 5'-AMP-activated protein kinase catalytic subunit alpha-1 (Homo sapiens) (UniProt Q13131); details: Compound concentration 1000.0 nM
[26] = molecular target: D(3) dopamine receptor (Homo sapiens) (UniProt P35462); details: Compound concentration 10.0 uM
[27] = molecular target: Sodium-dependent noradrenaline transporter (Homo sapiens) (UniProt P23975); details: Compound concentration 10.0 uM
[28] = molecular target: Receptor-type tyrosine-protein kinase FLT3 (Homo sapiens) (UniProt P36888); details: Compound concentration 1000.0 nM
Receptor-type tyrosine-protein kinase FLT3 (Homo sapiens), sequence (P36888 whole entry): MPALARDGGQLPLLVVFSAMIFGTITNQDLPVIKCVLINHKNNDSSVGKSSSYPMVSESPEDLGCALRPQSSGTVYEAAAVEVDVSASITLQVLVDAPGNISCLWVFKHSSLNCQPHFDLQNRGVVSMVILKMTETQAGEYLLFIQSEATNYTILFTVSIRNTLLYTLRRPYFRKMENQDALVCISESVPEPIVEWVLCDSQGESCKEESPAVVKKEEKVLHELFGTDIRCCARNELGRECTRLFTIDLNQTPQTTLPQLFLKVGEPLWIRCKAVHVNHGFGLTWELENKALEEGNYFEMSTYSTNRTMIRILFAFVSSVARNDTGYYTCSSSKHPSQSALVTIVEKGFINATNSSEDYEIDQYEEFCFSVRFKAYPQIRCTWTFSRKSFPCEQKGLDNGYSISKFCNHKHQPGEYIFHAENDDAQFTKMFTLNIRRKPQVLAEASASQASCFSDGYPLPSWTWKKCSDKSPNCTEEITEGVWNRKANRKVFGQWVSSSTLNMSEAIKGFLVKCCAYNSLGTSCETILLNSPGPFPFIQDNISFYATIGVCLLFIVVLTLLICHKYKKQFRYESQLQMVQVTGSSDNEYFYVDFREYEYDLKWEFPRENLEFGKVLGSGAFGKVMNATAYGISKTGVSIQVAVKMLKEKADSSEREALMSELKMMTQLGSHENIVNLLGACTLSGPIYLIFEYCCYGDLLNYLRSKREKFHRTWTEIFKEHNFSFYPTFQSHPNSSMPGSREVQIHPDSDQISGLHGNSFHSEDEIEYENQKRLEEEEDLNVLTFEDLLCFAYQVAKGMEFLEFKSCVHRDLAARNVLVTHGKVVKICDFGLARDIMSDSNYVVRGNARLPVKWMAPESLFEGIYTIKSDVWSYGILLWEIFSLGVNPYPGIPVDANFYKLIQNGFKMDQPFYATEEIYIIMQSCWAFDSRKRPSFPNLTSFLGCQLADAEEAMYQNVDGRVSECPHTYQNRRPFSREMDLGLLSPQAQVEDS

[29] = molecular target: cAMP-dependent protein kinase catalytic subunit alpha (Homo sapiens) (UniProt P17612); details: Compound concentration 1000.0 nM
[30] = molecular target: T2, 5-hydroxytryptamine receptor 2C (Homo sapiens) (UniProt P28335); details: Compound concentration 10.0 uM
T2 sequence (whole entry): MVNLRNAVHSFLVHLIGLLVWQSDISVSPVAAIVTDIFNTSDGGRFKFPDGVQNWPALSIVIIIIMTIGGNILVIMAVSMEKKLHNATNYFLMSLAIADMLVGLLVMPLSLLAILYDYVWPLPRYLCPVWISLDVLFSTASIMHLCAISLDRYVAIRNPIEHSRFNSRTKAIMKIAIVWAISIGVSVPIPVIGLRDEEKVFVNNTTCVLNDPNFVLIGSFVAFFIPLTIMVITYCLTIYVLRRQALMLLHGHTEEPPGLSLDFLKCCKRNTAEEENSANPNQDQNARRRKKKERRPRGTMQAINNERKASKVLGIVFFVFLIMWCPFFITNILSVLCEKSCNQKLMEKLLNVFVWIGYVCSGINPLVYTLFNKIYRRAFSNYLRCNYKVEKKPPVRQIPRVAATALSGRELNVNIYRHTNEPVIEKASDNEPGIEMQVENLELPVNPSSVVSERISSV

[31] = tested on: Fibroblast growth factor receptor 3 (Homo sapiens), P22607 [G697C]; details: Compound concentration 1000.0 nM
[32] = molecular target: Serine/threonine-protein kinase PLK2 (Homo sapiens) (UniProt Q9NYY3); details: Compound concentration 1000.0 nM
Serine/threonine-protein kinase PLK2 (Homo sapiens), sequence (Q9NYY3 whole entry, looked up): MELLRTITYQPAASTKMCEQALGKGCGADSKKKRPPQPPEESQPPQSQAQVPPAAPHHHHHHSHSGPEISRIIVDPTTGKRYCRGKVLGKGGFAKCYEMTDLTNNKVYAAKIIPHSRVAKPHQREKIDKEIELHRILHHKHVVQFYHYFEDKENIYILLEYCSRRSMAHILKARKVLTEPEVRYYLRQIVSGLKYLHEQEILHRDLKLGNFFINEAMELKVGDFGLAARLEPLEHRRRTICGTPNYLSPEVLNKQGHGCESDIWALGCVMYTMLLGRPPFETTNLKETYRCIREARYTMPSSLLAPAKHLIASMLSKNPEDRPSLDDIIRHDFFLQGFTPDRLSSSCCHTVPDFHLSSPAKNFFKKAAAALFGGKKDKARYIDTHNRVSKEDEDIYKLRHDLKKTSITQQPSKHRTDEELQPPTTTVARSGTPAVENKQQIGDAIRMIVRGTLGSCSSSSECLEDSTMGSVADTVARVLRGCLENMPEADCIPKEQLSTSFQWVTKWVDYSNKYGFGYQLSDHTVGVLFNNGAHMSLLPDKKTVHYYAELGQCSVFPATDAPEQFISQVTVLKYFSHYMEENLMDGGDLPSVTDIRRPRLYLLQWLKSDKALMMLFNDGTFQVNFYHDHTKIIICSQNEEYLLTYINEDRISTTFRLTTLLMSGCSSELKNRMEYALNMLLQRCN

[33] = molecular target: G protein-coupled receptor kinase 4 (Homo sapiens) (UniProt P32298); details: Compound concentration 1000.0 nM
G protein-coupled receptor kinase 4 (Homo sapiens), sequence (P32298 whole entry, looked up): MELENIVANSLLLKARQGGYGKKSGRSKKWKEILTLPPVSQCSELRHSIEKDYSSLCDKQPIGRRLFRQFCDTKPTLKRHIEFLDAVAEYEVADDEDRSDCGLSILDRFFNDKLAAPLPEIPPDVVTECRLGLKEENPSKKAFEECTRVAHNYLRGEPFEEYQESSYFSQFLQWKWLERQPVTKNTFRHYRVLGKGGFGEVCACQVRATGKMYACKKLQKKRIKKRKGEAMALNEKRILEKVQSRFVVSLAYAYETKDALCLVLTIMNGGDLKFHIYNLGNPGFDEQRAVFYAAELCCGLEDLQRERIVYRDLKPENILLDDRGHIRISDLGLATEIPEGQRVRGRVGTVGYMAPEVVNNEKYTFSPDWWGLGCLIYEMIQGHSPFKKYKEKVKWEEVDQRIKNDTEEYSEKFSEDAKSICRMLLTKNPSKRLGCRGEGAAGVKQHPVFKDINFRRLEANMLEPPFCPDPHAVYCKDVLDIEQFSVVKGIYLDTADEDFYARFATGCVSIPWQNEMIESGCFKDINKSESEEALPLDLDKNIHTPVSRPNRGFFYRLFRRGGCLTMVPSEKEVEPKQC

Receptor-type tyrosine-protein kinase FLT3 (Homo sapiens), P36888 [UNDEFINED MUTATION], sequence (P36888 whole entry, looked up, change not shown, canonical isoform): as the sequence (P36888 whole entry) above

CCC(=N\O)/C(C)=C/c1ccc(F)c(C)c1 [A-226]
inactive: residual activity [1] 97% | residual activity [2] 83% | residual activity [3] 100% | residual activity [4] 97% | residual activity [5] 100% | residual activity [6] 100% | residual activity [7] 100% | residual activity [8] 100% | residual activity [9] 98% | residual activity [10] 100% | residual activity [11] 88% | residual activity [12] 100% | residual activity [13] 100% | residual activity [14] 94% | residual activity [15] 62% | residual activity [16] 91% | residual activity [17] 78% | residual activity [18] 96% | residual activity [19] 72% | residual activity [20] 100% | residual activity [21] 98% | inhibition [22] 2.82% | residual activity [23] 96% | inhibition [24] -2.46% | residual activity [25] 73% | inhibition [26] 8.6% | inhibition [27] -0.42% | residual activity [28] 93% | residual activity [29] 100% | inhibition [30] 27% | residual activity [31] 87% | residual activity [32] 100% | residual activity [33] 100%

CCC(=N\O)/C(C)=C/c1ccc(F)cc1 [A-079]
inactive: residual activity [1] 76% | residual activity [2] 78% | residual activity [3] 89% | residual activity [4] 79% | residual activity [5] 72% | residual activity [6] 71% | residual activity [7] 100% | residual activity [8] 100% | residual activity [9] 100% | residual activity [10] 83% | residual activity [11] 87% | residual activity [12] 88% | residual activity [13] 77% | residual activity [14] 97% | residual activity [15] 76% | residual activity [16] 81% | residual activity [17] 81% | residual activity [18] 91% | residual activity [19] 99% | residual activity [20] 99% | residual activity [21] 87% | inhibition [22] 5.31% | residual activity [23] 93% | inhibition [24] 15.2% | residual activity [25] 99% | inhibition [26] 14.5% | inhibition [27] -2.32% | residual activity [28] 100% | residual activity [29] 78% | inhibition [30] 32.7% | residual activity [31] 84% | residual activity [32] 78% | residual activity [33] 100%
